In brackets after ≈: the same amount, converted by molar mass. Where two headings read alike, the source gives them in different places.
Assays:
[1] = test system: S. aureus (MRSA); experiment: cefoxitin Etest susceptibility testing (MIC), MRSA; assay type: cell-based, Staphylococcus aureus
[2] = test system: S. aureus (MSSA); experiment: cefoxitin Etest susceptibility testing (MIC), MSSA; assay type: cell-based, Staphylococcus aureus
[3] = test system: MR-CNS; experiment: cefoxitin Etest susceptibility testing (MIC), MR-CNS; assay type: cell-based, coagulase-negative staphylococci
[4] = test system: MS-CNS; experiment: cefoxitin Etest susceptibility testing (MIC), MS-CNS; assay type: cell-based, coagulase-negative staphylococci

CO[C@@]1(NC(=O)Cc2cccs2)C(=O)N2C(C(=O)O)=C(COC(N)=O)CS[C@@H]21 [cefoxitin]
MIC ([1]; Staphylococcus aureus, ATCC 33591 / MRSA, cefoxitin Etest, Reference (ATCC 33591), SCCmec type III, read-out: MIC): ≥ 256 µg/mL | MIC ([1]; Staphylococcus aureus, ATCC 33591 / MRSA, cefoxitin, strain 2, MRSA ATCC 33591, SCCmec III, read-out: MIC Etest): ≥ 256 µg/mL | MIC ([1]; Staphylococcus aureus, ATCC 43300 / MRSA, cefoxitin Etest, Reference (ATCC 43300), SCCmec type II, read-out: MIC): 128 µg/mL (≈ 299 µM) | MIC ([1]; Staphylococcus aureus, ATCC 43300 / MRSA, cefoxitin, strain 39, MRSA ATCC 43300, SCCmec II, read-out: MIC Etest): 128 µg/mL (≈ 299 µM) | MIC ([1]; Staphylococcus aureus, MRSA / NCTC 10422, cefoxitin Etest, Reference (NCTC10422), SCCmec type Ib, read-out: MIC): ≥ 256 µg/mL | MIC ([1]; Staphylococcus aureus, MRSA / USA300, cefoxitin Etest, Reference (USA300), SCCmec type IV, read-out: MIC): 48 µg/mL (≈ 112 µM) | MIC ([1]; Staphylococcus aureus, MRSA / USA300, cefoxitin, strain 886, MRSA USA300, SCCmec IV, read-out: MIC Etest): 48 µg/mL (≈ 112 µM) | MIC ([1]; Staphylococcus aureus, MRSA / USA500, cefoxitin Etest, Reference (USA500), SCCmec type IV, read-out: MIC): 48 µg/mL (≈ 112 µM) | MIC ([1]; Staphylococcus aureus, MRSA, cefoxitin Etest, Reference (Clinical COL), SCCmec type I, read-out: MIC): ≥ 256 µg/mL | MIC ([1]; Staphylococcus aureus, MRSA, cefoxitin Etest, Reference (Clinical EU), SCCmec type Ia, read-out: MIC): ≥ 256 µg/mL | MIC ([1]; Staphylococcus aureus, MRSA, cefoxitin Etest, Reference (DK, SSI), SCCmec type IIIa, read-out: MIC): ≥ 256 µg/mL | MIC ([1]; Staphylococcus aureus, MRSA, cefoxitin Etest, Reference (DK, SSI), SCCmec type V, read-out: MIC): 12 µg/mL (≈ 28.1 µM) | MIC ([1]; Staphylococcus aureus, MRSA, cefoxitin, strain 9, MRSA EU, SCCmec I, read-out: MIC Etest): ≥ 256 µg/mL | MIC ([1]; Staphylococcus aureus, MRSA, cefoxitin, strain 11, MRSA EU, SCCmec II, read-out: MIC Etest): ≥ 256 µg/mL | MIC ([1]; Staphylococcus aureus, MRSA, cefoxitin, strain 13, MRSA, SCCmec IIIa, read-out: MIC Etest): ≥ 256 µg/mL | MIC ([1]; Staphylococcus aureus, MRSA, cefoxitin, strain 306, MRSA DK, SCCmec V, read-out: MIC Etest): 12 µg/mL (≈ 28.1 µM) | MIC ([1]; Staphylococcus aureus, MRSA, cefoxitin, strain 320, MRSA clinical DK, SCCmec IV, read-out: MIC Etest): ≥ 256 µg/mL | MIC ([1]; Staphylococcus aureus, MRSA, cefoxitin, strain 1468, MRSA COL, SCCmec I, read-out: MIC Etest): ≥ 256 µg/mL | MIC ([1]; cefoxitin Etest, strain 2, MRSA, Reference (ATCC 33591), type III): ≧256 | MIC ([1]; cefoxitin Etest, strain 9, MRSA, Reference EU, type I): ≧256 | MIC ([1]; cefoxitin Etest, strain 10, MRSA, Reference EU, type Ia): ≧256 | MIC ([1]; cefoxitin Etest, strain 11, MRSA, Reference EU, type II): ≧256 | MIC ([1]; cefoxitin Etest, strain 12, MRSA, Reference EU, type III): ≧256 | MIC ([1]; cefoxitin Etest, strain 13, MRSA, Reference EU, type IIIa): ≧256 | MIC ([1]; cefoxitin Etest, strain 15, MRSA, Clinical DK, type IV/ST80): 48 µg/mL (≈ 112 µM) | MIC ([1]; cefoxitin Etest, strain 39, MRSA, Reference (ATCC 43300), type II (EVIGENE)): 128 µg/mL (≈ 299 µM) | MIC ([1]; cefoxitin Etest, strain 295, MRSA, Reference DK, type IA): ≧256 | MIC ([1]; cefoxitin Etest, strain 297, MRSA, Reference DK, type IA, EVIGENE IV): 48 µg/mL (≈ 112 µM) | MIC ([1]; cefoxitin Etest, strain 298, MRSA, Reference DK, type II): ≧256 | MIC ([1]; cefoxitin Etest, strain 299, MRSA, Reference DK, type II): ≧256 | MIC ([1]; cefoxitin Etest, strain 300, MRSA, Reference DK, type II): ≧256 | MIC ([1]; cefoxitin Etest, strain 302, MRSA, Reference DK, type IIIA): ≧256 | MIC ([1]; cefoxitin Etest, strain 303, MRSA, Reference DK, type III): ≧256 | MIC ([1]; cefoxitin Etest, strain 304, MRSA, Reference DK, type IV): 48 µg/mL (≈ 112 µM) | MIC ([1]; cefoxitin Etest, strain 305, MRSA, Reference DK, type III): ≧256 | MIC ([1]; cefoxitin Etest, strain 306, MRSA, Reference DK, type V): 12 µg/mL (≈ 28.1 µM) | MIC ([1]; cefoxitin Etest, strain 307, MRSA, Reference DK, type IV): 48 µg/mL (≈ 112 µM) | MIC ([1]; cefoxitin Etest, strain 320, MRSA, Clinical DK, type IV (EVIGENE)): ≧256 | MIC ([1]; cefoxitin Etest, strain 321, MRSA, Clinical DK, type V (EVIGENE)): 96 µg/mL (≈ 225 µM) | MIC ([1]; cefoxitin Etest, strain 460, MRSA, Reference, Tokyo, type V): 12 µg/mL (≈ 28.1 µM) | MIC ([1]; cefoxitin Etest, strain 463, MRSA, Reference (NCTC10422), type Ib): ≧256 | MIC ([1]; cefoxitin Etest, strain 557, MRSA, Reference (USA300), type IV): 64 µg/mL (≈ 150 µM) | MIC ([1]; cefoxitin Etest, strain 559, MRSA, Reference (USA300), type IV): ≧256 | MIC ([1]; cefoxitin Etest, strain 560, MRSA, Reference (USA500), type IV): 48 µg/mL (≈ 112 µM) | MIC ([1]; cefoxitin Etest, strain 797, MRSA, Clinical DK, type II (EVIGENE)): 64 µg/mL (≈ 150 µM) | MIC ([1]; cefoxitin Etest, strain 801, MRSA, Clinical DK, type II (EVIGENE)): ≧256 | MIC ([1]; cefoxitin Etest, strain 812, MRSA, Clinical DK, type II (EVIGENE)): ≧256 | MIC ([1]; cefoxitin Etest, strain 886, MRSA, Reference (FPR3757, USA300), type IV): 48 µg/mL (≈ 112 µM) | MIC ([1]; cefoxitin Etest, strain 920, MRSA, Clinical DK, type I (EVIGENE)): ≧256 | MIC ([1]; cefoxitin Etest, strain 924, MRSA, Clinical DK, type IV (EVIGENE)): 96 µg/mL (≈ 225 µM) | MIC ([1]; cefoxitin Etest, strain 926, MRSA, Clinical DK, type IV (EVIGENE)): 48 µg/mL (≈ 112 µM) | MIC ([1]; cefoxitin Etest, strain 927, MRSA, Clinical DK, type IV): 24 µg/mL (≈ 56.1 µM) | MIC ([1]; cefoxitin Etest, strain 931, MRSA, Clinical DK, type III (EVIGENE)): ≧256 | MIC ([1]; cefoxitin Etest, strain 1184, MRSA, Reference (ATCC BAA-1708), type II (EVIGENE)): 96 µg/mL (≈ 225 µM) | MIC ([1]; cefoxitin Etest, strain 1468, MRSA, Reference (COL), type I): ≧256 | MIC ([2]; Staphylococcus aureus, ATCC 11632 / MSSA, cefoxitin Etest, MSSA Reference (ATCC 11632), read-out: MIC): 3 µg/mL (≈ 7.02 µM) | MIC ([2]; Staphylococcus aureus, ATCC 25923 / MSSA, cefoxitin Etest, MSSA Reference (ATCC 25923), read-out: MIC): 3 µg/mL (≈ 7.02 µM) | MIC ([2]; Staphylococcus aureus, ATCC 25923 / MSSA, cefoxitin, strain 155, MSSA ATCC 25923, read-out: MIC Etest): 3 µg/mL (≈ 7.02 µM) | MIC ([2]; Staphylococcus aureus, ATCC 29213 / MSSA, cefoxitin Etest, MSSA Reference (ATCC 29213), read-out: MIC): 4 µg/mL (≈ 9.36 µM) | MIC ([2]; Staphylococcus aureus, ATCC 29213 / MSSA, cefoxitin, strain 156, MSSA ATCC 29213, read-out: MIC Etest): 4 µg/mL (≈ 9.36 µM) | MIC ([2]; Staphylococcus aureus, cefoxitin, MSSA (n = 15), read-out: MIC Etest): 3 to 4 µg/mL (≈ 7.02 to 9.36 µM) | MIC ([2]; cefoxitin Etest, strain 1, MSSA, Reference (ATCC 6538)): 3 µg/mL (≈ 7.02 µM) | MIC ([2]; cefoxitin Etest, strain 21, MSSA, Clinical EU): 4 µg/mL (≈ 9.36 µM) | MIC ([2]; cefoxitin Etest, strain 22, MSSA, Clinical DK): 4 µg/mL (≈ 9.36 µM) | MIC ([2]; cefoxitin Etest, strain 23, MSSA, Clinical DK): 3 µg/mL (≈ 7.02 µM) | MIC ([2]; cefoxitin Etest, strain 24, MSSA, Clinical DK): 4 µg/mL (≈ 9.36 µM) | MIC ([2]; cefoxitin Etest, strain 26, MSSA, Clinical DK): 4 µg/mL (≈ 9.36 µM) | MIC ([2]; cefoxitin Etest, strain 54, MSSA, Clinical EU): 4 µg/mL (≈ 9.36 µM) | MIC ([2]; cefoxitin Etest, strain 117, MSSA, Reference (ATCC 11632)): 3 µg/mL (≈ 7.02 µM) | MIC ([2]; cefoxitin Etest, strain 155, MSSA, Reference (ATCC 25923)): 3 µg/mL (≈ 7.02 µM) | MIC ([2]; cefoxitin Etest, strain 156, MSSA, Reference (ATCC 29213)): 4 µg/mL (≈ 9.36 µM) | MIC ([3]; strain 4, MR-CNS, S. epidermidis, Reference (ATCC 51625)): 32 µg/mL (≈ 74.9 µM) | MIC ([3]; strain 154, MR-CNS, S. saccharolyticus, Reference (ATCC 14953)): ≧256 | MIC ([3]; strain 350, MR-CNS, S. epidermidis, Reference): ≧256 | MIC ([3]; strain 351, MR-CNS, S. warneri, Reference DK): 192 µg/mL (≈ 449 µM) | MIC ([3]; strain 352, MR-CNS, S. epidermidis, Reference DK): 256 µg/mL (≈ 599 µM) | MIC ([3]; strain 353, MR-CNS, S. hominis, Reference DK): 64 µg/mL (≈ 150 µM) | MIC ([3]; strain 408, MR-CNS, Clinical DK): ≧256 | MIC ([3]; strain 412, MR-CNS, Clinical DK): ≧256 | MIC ([3]; strain 414, MR-CNS, Clinical DK): 256 µg/mL (≈ 599 µM) | MIC ([4]; cefoxitin Etest, strain 629, MS-CNS, S. epidermidis, Reference (ATCC 14990)): 1.5 µg/mL (≈ 3.51 µM) | MIC ([4]; cefoxitin, MS-CNS (n = 5), read-out: MIC Etest): 1.5 µg/mL (≈ 3.51 µM)

— patent US20160257997A1, “METHODS FOR WHOLE-CELL ANALYSIS OF GRAM-POSITIVE BACTERIA” (AdvanDx, Inc., priority 2009, published 2016)
